# Source: paper PMC6198068, “Discovery of a Novel Nav1.7 Inhibitor From Cyriopagopus albostriatus Venom With Potent Analgesic Efficacy” (Frontiers in Pharmacology, 2018)
# Read-outs that look alike come from different tables or passages of the source. Where a SMILES comes first, the peptide text is derived from it. Bridges are numbered along the chain shown (N, C = ends).
# Experiments:
# Nav1.7 = biological target: T1, Nav1.7 (Homo sapiens, UniProt Q15858); assay: Use/frequency-dependent inhibition of Nav1.7; assay type: cell-based; details: n = 4-5; for IC50: read-out: IC50 Nav1.7, repetitive pulses
# T1 construct: expressed in transfected cells; host or cells: HEK293T
# Text: (§1) The cDNA genes encoding rat Nav1.4 and human Nav1.7 were subcloned into vectors pRGB4 and pcDNA3.1-mod, respectively. Mutations of rNav1.4 (N655D, Q657E, and N655D/Q657E) and hNav1.7 (D816N, E818Q, and D816N/E818Q) were constructed using the Gene Tailor Site-Directed Mutagenesis system (Invitrogen, Carlsbad, CA, United States), according to the manufacturer’s instructions. Nav1.2–Nav1.7 and mutant plasmids together with eGFP were transiently transfected into HEK293T cells while Nav1.8 together with eGFP was transiently transfected into ND7/23 cells by Lipofectamine 2000 (Invitrogen, Carlsbad, CA, United States). Additionally, plasmids β1- and β2-eGFP encoding the human β1 and β2 subunits, respectively, were co-transfected with those encoding WT Nav1.7 and Nav1.7 mutations in HEK293T cells. Human Nav1.9 was transfected into ND7/23 cells according to a previous report ([Zhou et al., 2017]). […] Cells with green fluorescent protein fluorescence were selected for whole-cell patch-clamp recordings 24 h after transfection.
# (§2) Whole-cell patch-clamp recordings were performed at room temperature (20–25°C) using an EPC 10 USB Patch Clamp Amplifier (HEKA, Elektronik, Lambrecht, Germany). […] Data was analyzed by software Igo Pro 6.10A (WaveMetrics, Lake Oswego, OR, United States), SigmaPlot 10.0 (Sigma-Aldrich, St. Louis, MO, United States), OriginPro 8 (OriginLab Corp., Northampton, MA, United States), and GraphPad Prism 5 (GraphPad Software, San Diego, CA, United States). […]
# Fast inactivation time constants were calculated by fitting current decay traces with a single exponential function using the I–V protocol described above. Recovery from fast-inactivation (repriming) was assessed by using a two-pulse protocol consisting of a depolarizing pulse to −10 mV for 50 ms to inactivate channels, followed by a step to −100 mV of variable duration (1 to 1024 ms) to promote recovery, and 50 ms test pulse to −10 mV to assess availability of channels. […]
# Nav1.7/D816N [1] = biological target: T2, Nav1.7/D816N (Homo sapiens, UniProt Q15858, D827N); assay: Whole-cell patch-clamp, Nav1.7/D816N in HEK293T cells; assay type: cell-based
# T2 construct: expressed in transfected cells; host or cells: HEK293T
# Text: as §1, with “cells.” for “cells. Human Nav1.9 was transfected into ND7/23 cells according to a previous report ([Zhou et al., 2017]).”
# as §2
# Nav1.7/D816N [2] = biological target: T2, Nav1.7/D816N; assay: Time course of Nav1.7/D816N inhibition and recovery upon washing; assay type: cell-based; details: 1 μM, n = 4
# Text: as §1, with “cells.” for “cells. Human Nav1.9 was transfected into ND7/23 cells according to a previous report ([Zhou et al., 2017]).”
# as §2
# [3] = test system: formalin-induced paw licking in mice; assay: Formalin-induced paw licking; assay type: in vivo, ICR mice; details: for paw licking time, Phase I: control 90.3 ± 6.6 s; for paw licking time, Phase I / paw licking time, Phase II: mean ± SEM, n = 6–8; for paw licking time, Phase II: control 197.7 ± 20.7 s
# Procedure: The ICR mice (18–22 g) used in this study were purchased from the Experimental Animal Center of SLac-kinda (Changsha, China). The animals were maintained at 20–25°C and freely allowed to standard rodent chow and water ad libitum. Ethical approval for in vivo experiments in animals was approved by the Animal Care and Use Committee (ACUC) at the Hunan Province Animal Management Office (HPAMO).
# A formalin test was performed according to the previous method ([Owoyele et al., 2005]). […] The time spent licking the injected paw by each mouse was recorded by a digital stopwatch during Phase I (0–15 min post-injection) and Phase II (15–40 min post-injection).
# T1 sequence (O60939 30-215): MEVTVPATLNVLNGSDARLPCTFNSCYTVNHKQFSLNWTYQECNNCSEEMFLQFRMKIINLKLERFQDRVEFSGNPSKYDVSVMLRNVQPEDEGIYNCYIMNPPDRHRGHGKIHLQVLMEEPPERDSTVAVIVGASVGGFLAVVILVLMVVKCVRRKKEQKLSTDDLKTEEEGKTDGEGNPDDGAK
# T1 sequence (Q15858 other isoform, or with tags, fused parts or gaps): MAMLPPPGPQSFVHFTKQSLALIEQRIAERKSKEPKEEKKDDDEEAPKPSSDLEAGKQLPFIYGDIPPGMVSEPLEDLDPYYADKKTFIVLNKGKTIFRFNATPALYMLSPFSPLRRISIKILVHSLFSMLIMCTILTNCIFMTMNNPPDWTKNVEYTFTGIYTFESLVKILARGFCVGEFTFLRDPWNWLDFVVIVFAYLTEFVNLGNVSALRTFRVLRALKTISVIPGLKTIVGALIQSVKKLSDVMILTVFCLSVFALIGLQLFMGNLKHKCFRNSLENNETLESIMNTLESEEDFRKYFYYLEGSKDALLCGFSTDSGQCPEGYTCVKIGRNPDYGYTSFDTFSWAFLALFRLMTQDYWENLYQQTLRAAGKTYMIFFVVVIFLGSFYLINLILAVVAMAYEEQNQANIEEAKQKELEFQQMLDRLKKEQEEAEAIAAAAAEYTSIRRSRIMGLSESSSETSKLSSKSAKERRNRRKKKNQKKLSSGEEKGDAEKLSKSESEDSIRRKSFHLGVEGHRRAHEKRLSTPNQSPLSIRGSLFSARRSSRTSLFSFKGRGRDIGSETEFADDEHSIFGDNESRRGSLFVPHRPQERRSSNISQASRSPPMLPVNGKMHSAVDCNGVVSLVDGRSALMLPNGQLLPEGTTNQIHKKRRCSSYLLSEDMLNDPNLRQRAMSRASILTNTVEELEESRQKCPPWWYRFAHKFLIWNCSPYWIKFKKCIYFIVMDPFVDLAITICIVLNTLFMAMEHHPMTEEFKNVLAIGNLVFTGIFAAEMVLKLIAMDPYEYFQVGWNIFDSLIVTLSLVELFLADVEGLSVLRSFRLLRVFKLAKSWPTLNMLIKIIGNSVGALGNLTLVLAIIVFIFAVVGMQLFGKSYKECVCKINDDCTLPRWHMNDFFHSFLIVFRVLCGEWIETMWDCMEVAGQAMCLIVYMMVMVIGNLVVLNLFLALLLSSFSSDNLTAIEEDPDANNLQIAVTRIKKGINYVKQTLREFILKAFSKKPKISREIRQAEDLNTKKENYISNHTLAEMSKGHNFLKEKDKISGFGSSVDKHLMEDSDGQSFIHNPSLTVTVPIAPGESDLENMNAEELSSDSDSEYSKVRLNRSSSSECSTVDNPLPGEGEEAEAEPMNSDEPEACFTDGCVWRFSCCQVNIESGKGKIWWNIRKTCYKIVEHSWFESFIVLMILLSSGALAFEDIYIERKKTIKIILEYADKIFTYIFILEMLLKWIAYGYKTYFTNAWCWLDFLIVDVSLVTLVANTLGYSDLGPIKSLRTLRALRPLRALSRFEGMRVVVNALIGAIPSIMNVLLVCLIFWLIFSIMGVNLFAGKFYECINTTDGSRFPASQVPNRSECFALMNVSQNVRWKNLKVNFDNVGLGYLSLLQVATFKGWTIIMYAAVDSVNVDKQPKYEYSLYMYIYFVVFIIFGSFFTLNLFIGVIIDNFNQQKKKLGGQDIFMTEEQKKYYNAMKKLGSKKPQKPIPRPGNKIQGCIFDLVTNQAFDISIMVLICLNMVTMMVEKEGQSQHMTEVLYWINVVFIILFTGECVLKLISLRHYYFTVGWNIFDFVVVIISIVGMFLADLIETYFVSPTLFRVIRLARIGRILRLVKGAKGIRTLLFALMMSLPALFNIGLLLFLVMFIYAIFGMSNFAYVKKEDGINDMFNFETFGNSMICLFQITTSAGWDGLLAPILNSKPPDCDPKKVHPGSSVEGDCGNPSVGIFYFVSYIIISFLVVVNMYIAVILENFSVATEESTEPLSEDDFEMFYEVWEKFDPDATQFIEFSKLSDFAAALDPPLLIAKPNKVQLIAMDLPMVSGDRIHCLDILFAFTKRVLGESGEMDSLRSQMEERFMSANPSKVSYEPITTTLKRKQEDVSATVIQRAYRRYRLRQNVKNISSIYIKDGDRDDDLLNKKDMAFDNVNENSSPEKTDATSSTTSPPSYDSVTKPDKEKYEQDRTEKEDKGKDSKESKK
# T1 sequence (Q07699 19-218, further chain): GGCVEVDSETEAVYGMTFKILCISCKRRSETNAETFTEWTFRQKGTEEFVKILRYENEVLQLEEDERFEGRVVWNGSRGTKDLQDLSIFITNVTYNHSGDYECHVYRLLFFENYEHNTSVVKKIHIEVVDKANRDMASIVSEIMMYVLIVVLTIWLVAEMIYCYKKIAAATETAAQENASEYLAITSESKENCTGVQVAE
# T2 sequence (O60939 30-215): as the sequence (O60939 30-215) above
# T2 sequence (Q07699 19-218, further chain): as the sequence (Q07699 19-218, further chain) above
# T2 sequence (Q15858 other isoform, or with tags, fused parts or gaps D816N): as the sequence (Q15858 other isoform, or with tags, fused parts or gaps) above, with D816N counted along it
structure (smiles),measurement,setting,value
"CC(C)C[C@H](NC(=O)[C@H](CC(=O)O)NC(=O)[C@H](Cc1ccc(O)cc1)NC(=O)[C@H](CCCCN)NC(=O)[C@@H]1CSSC[C@@H]2NC(=O)[C@H](CCCCN)NC(=O)[C@H](CC(=O)O)NC(=O)[C@H](CC(N)=O)NC(=O)[C@H](CO)NC(=O)[C@@H]3CCCN3C(=O)[C@H](CC(N)=O)NC(=O)[C@@H]3CSSC[C@H](NC(=O)[C@H](C(C)C)NC(=O)[C@H](CC(C)C)NC(=O)[C@H](CO)NC(=O)[C@H](CO)NC(=O)[C@H](CO)NC(=O)[C@H](CCCCN)NC(=O)[C@H](CSSC[C@H](NC(=O)[C@H](C)N)C(=O)N[C@@H](CC(C)C)C(=O)NCC(=O)N[C@@H](Cc4ccccc4)C(=O)NCC(=O)N[C@@H](CCC(=O)O)C(=O)N[C@@H](CCCCN)C(=O)N3)NC2=O)C(=O)N[C@@H](CO)C(=O)N[C@@H](CCC(N)=O)C(=O)N[C@@H](CCCCN)C(=O)N[C@@H](Cc2c[nH]cn2)C(=O)N[C@@H](CCCCN)C(=O)N[C@@H](Cc2c[nH]c3ccccc23)C(=O)N1)C(=O)O [Ca2a] (H-ACLGFGEKCNPSNDKCCKSSSLVCSQKHKWCKYDL-OH; disulfide 2-17, 9-24, 16-31 (inferred); N-terminus and C-terminus assumed)",use/frequency dependence of inhibition for Nav1.7,"Nav1.7; 1, 5 and 10 Hz",did not show obvious use/frequency dependence
same,IC50,Nav1.7; 5 Hz,244 ± 30.7 nM
same,IC50,Nav1.7; 10 Hz,185 ± 23.8 nM
same,inhibition of Nav1.7/D816N current amplitude,Nav1.7/D816N [1]; 1 μM,significantly inhibited
same,IC50,"Nav1.7/D816N [1]; mean ± SEM, n = 5 cells per data point",172 ± 11.4 nM
same,recovery of Nav1.7/D816N current on washout,Nav1.7/D816N [2]; extended washout,did not recover
same,"τon, Nav1.7/D816N",Nav1.7/D816N [2],18.4 ± 1.3 s
same,"paw licking time, Phase I","[3]; 0–15 min, 50 μg/kg i.p. 30 min before 5% formalin",80.1 ± 4.6 s
same,"paw licking time, Phase I","[3]; 0–15 min, 100 μg/kg i.p. 30 min before 5% formalin",79.4 ± 9.5 s
same,"paw licking time, Phase I","[3]; 0–15 min, 200 μg/kg i.p. 30 min before 5% formalin",75.6 ± 7.7 s
same,analgesic effect on Phase I compared to control,"[3]; 0–15 min, Ca2a 50, 100, 200 μg/kg, morphine 100 μg/kg, i.p.",no analgesic effect
same,"paw licking time, Phase II","[3]; 15–40 min, 50 μg/kg i.p. 30 min before 5% formalin",100.9 ± 16.2 s
same,"paw licking time, Phase II","[3]; 15–40 min, 100 μg/kg i.p. 30 min before 5% formalin",67.2 ± 20.2 s
same,"paw licking time, Phase II","[3]; 15–40 min, 200 μg/kg i.p. 30 min before 5% formalin",40.5 ± 7.1 s
same,analgesic effect on Phase II,"[3]; 15–40 min, 50, 100, 200 μg/kg i.p.",significant analgesic effect in a dose-dependent manner
same,"analgesia relative to morphine, formalin test","[3]; formalin, hot plate and writhing together, Ca2a vs morphine",dose-dependently equipotent or stronger analgesia than morphine
